Assay results reported in US7169592B2, “Producing optically active amino compounds” (Kaneka Corporation, priority 1997, dated 2007).
Marks after values point to notes of the source that are not given here.

Columns and labels:
[1] = system: purified enzyme protein (transaminase); test: Reactivity of purified transaminase to carbonyl compounds with (R)-1-phenylethylamine as amino group donor; assay type: biochemical, Arthrobacter species KNK168; details: for Relative Activity: 25 mM carbonyl compound, 25 mM (R)-1-phenylethylamine, pH 8.5, 30° C., pyruvic acid = 100; for Reactivity as carbonyl compound (in words): (R)-1-phenylethylamine as amino group donor
Protocol: Using the purified enzyme protein obtained in Example 9, reactivities to various carbonyl compounds using (R)-1-phenylethylamine as an amino group donor were evaluated. A 50 μl solution of the purified enzyme protein was added to 200 μl substrate solution [0.1 M Tris-HCl buffer (pH 8.5), 25 mM (R)-1-phenylethylamine, 0.1 mM pyridoxal phosphate, and 25 mM various carbonyl compounds], and the mixture was reacted at 30° C. for 1 to 3 hours in tube. The reaction tube was transferred into boiling water to stop the reaction, and thereafter, the reaction mixture was diluted five-folds with methanol. This diluted solution was analyzed by high-performance liquid chromatography using a fine pack C18-5 column and using methanol-water (20:80) as an eluent to quantitate acetophenone formed by the reaction.

[2] = system: Arthrobacter species KNK168 strain; test: Amino group donors in whole-cell transamination of 1-(3,4-dimethoxyphenyl)-2-propanone; assay type: cell-based
Protocol: The cultured cells were harvested by centrifugation, and the harvested cells were suspended in a reaction mixture (pH 8.5) containing 1% 1-(3,4-dimethoxyphenyl)-2-propanone, 0.1% Triton X-100, and 1% an amino group donor shown in Table 5. The mixture was reacted at 35° C. for 20 hours.

[3] = system: transaminase (intracellular enzyme); test: Activity of the transaminase (intracellular enzyme) on typical substrates of ω-aminotransferases; assay type: biochemical, Arthrobacter sp. KNK168
[4] = system: Transaminase of Present Invention (purified enzyme); test: Influence of reaction inhibitors on purified transaminase; assay type: biochemical, Arthrobacter sp. KNK168; details: inhibitor 1 mM; without addition = 100
From the text: (§1) The differences with the ω-amino acid transaminase derived from Pseudomonas sp. F-1 (Agric. Biol. Chem., 42, 2363–2367 (1978), Agric. Biol. Chem., 43, 1043–1048 (1979), J. Biol. Chem., 258, 2260–2265 (1983)) which have been well studied among the ω-amino acid transaminases, and with the benzylamine transaminase of Okada et al. (Japanese Patent Laid-Open No. Hei 6-178685) are summarized and shown in Table 2. In a case of the transaminase reaction in the present invention, the data of the purified enzyme are used, and in cases of those by other two enzymes, the data of the purified enzymes which are disclosed in each of the literature publication and laid-open patent publication are used. Pyruvic acid is used as an amino group acceptor in all cases.

[5] = system: Transaminase of Present Invention (purified enzyme); test: Reactivity of purified transaminase to amino compounds (amino group donors) with pyruvic acid as acceptor; assay type: biochemical, Arthrobacter sp. KNK168; details: for Relative Activity: amino compound 40 mM in substrate solution, pyruvic acid acceptor, pH 8.3, 30° C., 1 hour, (R)-1-phenylethylamine = 100; for Reactivity as amino compound (in words): pyruvic acid as amino acceptor
From the text: as §1
Using the purified enzyme protein obtained in Example 9, reactivities to various amino compounds when using pyruvic acid as an amino acceptor were evaluated. A 150 μl solution of the purified enzyme protein solution diluted ten-folds was added to a 150 μl substrate solution [0.1 M potassium phosphate buffer (pH 8.3), 40 mM pyruvic acid, 0.1 mM pyridoxal phosphate, and 40 mM various amino compounds]. The components were reacted at 30° C. for 1 hour. The reaction tube was transferred into boiling water to stop the reaction, and thereafter, a part of the reaction mixture was diluted five-folds. Ten μl 0.1 M boric acid buffer (pH 8.0) and a 20 μl ethanol solution of 80 mM 4-fluoro-7-nitro-2,1,3-benzoxadiazole (NBD-F) were added to the 10 μl above-mentioned diluted reaction mixture. The resulting mixture was reacted at 60° C. for 1 minute, and thereafter, the resulting mixture was ice-cooled, and 460 μl 5 mM HCl was added thereto. This reaction mixture was analyzed by high-performance liquid chromatography using a fine pack C18-5 column (manufactured by Nippon Bunko) I and using 0.1 M potassium phosphate buffer (pH 6.5) and CH3CN (90:10) as an eluent to detect formation of NBD-Alanine with an excitation wavelength of 470 nm and a detection wave of […]. The results thereof are shown in Table 8 in terms of relative activity in the case of using […] as a substrate.

[6] = system: Arthrobacter species KNK168 strain; test: Surfactant and fatty acid additives in whole-cell transamination; assay type: cell-based; details: for (R)-DMA Formed: 30° C., pH 8.5, 20 hours; for Effect of additive on yield of reaction product (in words): whole cells
Protocol: The cells obtained by culturing the Arthrobacter species KNK168 strain in the R medium were suspended in a reaction mixture containing 2% 1-(3,4-dimethoxyphenyl)-2-propanone and 4% (RS)-1-phenylethylamine. The surfactants and fatty acids shown in Table 6 were added thereto, and the mixture was reacted at 30° C. at a pH of 8.5 for 20 hours.

[7] = 1% amino group donor, 1% 1-(3,4-dimethoxyphenyl)-2-propanone, 0.1% Triton X-100, pH 8.5, 35° C., 20 hours
[8] = amino group acceptor 2-ketoglutaric acid, (R)-1-phenylethylamine/pyruvic acid = 100 (control)
[9] = amino group acceptor pyruvic acid, (R)-1-phenylethylamine = 100 (control)
[10] = additive 0.1%, no addition 28.1

## 2-Decane
[1]
  Relative Activity: 3%

## CC(CN)c1ccccc1 (racemic) [(RS)-1-Amino-2-phenylpropane]
[2]; pH 8.5
  (R)-DMA Formed: 1.8%

## CC(N)c1ccccc1 (racemic) [(RS)-1-Phenylmethylamine]
[2]; [7]
  (R)-DMA Formed: 3.1%

## CC(N)CO (racemic) [(RS)-2-Amino-1-propanol]
[2]; [7]
  (R)-DMA Formed: 9.6%

## NC(CO)c1ccccc1 (racemic) [(RS)-2-Amino-2-phenylethanol]
[2]; [7]
  (R)-DMA Formed: 48.4%

## NC(CO)Cc1ccccc1 (racemic) [(RS)-2-Amino-3-phenylpropanol]
[2]; [7]
  (R)-DMA Formed: 22.7%

## CC(N)CCc1ccccc1 (racemic) [(RS)-2-Amino-4-phenylbutane]
[2]; [7]
  (R)-DMA Formed: 27.6%

## NC(=O)CC(N)C(=O)O (racemic) [DL-Asparagine]
[3]; [8]
  Relative Activity: 0%

## NC(=O)CCC(N)C(=O)O (racemic) [DL-Glutamine]
[3]; [8]
  Relative Activity: 0%

## NCCCCC(N)C(=O)O (racemic) [DL-Lysine]
[3]; [8]
  Relative Activity: 0%

## NCCCC(N)C(=O)O (racemic) [DL-Ornithine]
[3]; [8]
  Relative Activity: 0%

## NC1C=CC=C(C(=O)O)C1 (racemic) [Gabaculine]
[4]
  Relative activity with inhibitor: 24%

## COc1ccc(CC(C)=O)cc1OC [1-(3,4-Dimethoxyphenyl)-2-propanone]
[1]
  Relative Activity: 7%

## COCC(C)=O [1-Methoxy-2-propanone]
[1]
  Relative Activity: 16%

## CCCCCCC(C)N (stereo not drawn) [1-Methylheptylamine]
[5]
  Relative Activity: 47%

## CCC(C)N (stereo not drawn) [1-Methylpropylamine]
[5]
  Relative Activity: 1.2%

## CCC(=O)Cc1ccccc1 [1-Phenyl-2-butanone]
[1]
  Relative Activity: 1%

## O=C1CCCc2ccccc21 [1-Tetralone]
[1]
  Relative Activity: 1%

## NCCCC(N)C(=O)O (stereo not drawn) [2,5-Diaminovalerate]
[3]; [8]
  Relative Activity: 2%

## CC(=O)c1ccco1 [2-Acetylfuran]
[1]
  Relative Activity: 2%

## CC(=O)c1cnccn1 [2-Acetylpyrazine]
[1]
  Relative Activity: 17%

## CC(=O)c1ccccn1 [2-Acetylpyridine]
[1]
  Relative Activity: 19%

## CC(=O)c1nccs1 [2-Acetylthiazole]
[1]
  Relative Activity: 10%

## CC(=O)c1cccs1 [2-Acetylthiophene]
[1]
  Relative Activity: 1%

## CCC(=O)C(=O)O [2-Ketobutyric acid]
[1]
  Relative Activity: 7%

## CCCCC(C)CN (stereo not drawn) [2-Methylhexylamine]
[5]
  Relative Activity: 37%

## CC(=O)Oc1cccnc1 [3-Acetoxypyridine]
[1]
  Relative Activity: 1%

## CC(=O)c1cccnc1 [3-Acetylpyridine]
[1]
  Relative Activity: 8%

## CC(N)CCc1ccccc1 (stereo not drawn) [3-Aminophenylbutane]
[5]
  Relative Activity: 84%
  Reactivity as amino compound (in words): favorable reactivities

## COc1ccc(CCC(C)=O)cc1 [4-(4-Methoxyphenyl)-2-butanone]
[1]
  Relative Activity: 7%

## CC(=O)c1ccncc1 [4-Acetylpyridine]
[1]
  Relative Activity: 27%

## C[C@@H](N)c1cccc2ccccc12 [(R)-1-Naphthylethylamine]
[2]; [7]
  (R)-DMA Formed: 34.2%

## C[C@@H](N)c1ccccc1 [(R)-1-Phenylethylamine]
[5]
  Relative Activity: 100%
[3]
  Activity on the substance as amino group donor (in words): especially high activity
[3]; [9]
  Relative Activity: 100* %

## N[C@@H](CO)c1ccccc1 [(R)-2-Phenylglycinol]
[5]
  Relative Activity: 0%

## C[C@H](N)c1ccccc1 [(S)-1-Phenylethylamine]
[5]
  Relative Activity: 0%

## N[C@H](CO)c1ccccc1 [(S)-2-Phenylglycinol]
[5]
  Relative Activity: 180%
  Reactivity as amino compound (in words): favorable reactivities

## CC(=O)CCc1ccccc1 [Benzyl acetone]
[1]
  Relative Activity: 3%

## CCCCCCCCCCCCCCCC[N+](C)(C)C.[Br-] [Cetyl trimethyl ammonium bromide]
[6]; [10]
  (R)-DMA Formed: 29.1%

## CC(=O)C(C)=O [Diacetyl]
[1]
  Relative Activity: 10%

## CCOC(=O)CC(C)=O [Ethyl acetoacetate]
[1]
  Relative Activity: 4%

## CCOC(=O)CC(=O)c1ccccc1 [Ethyl benzoyl acetate]
[1]
  Relative Activity: 2%

## CCOC(=O)C(C)=O [Ethyl pyruvate]
[1]
  Relative Activity: 27%

## O=CC(=O)O [Glyoxylic acid]
[1]
  Relative Activity: 4%

## N[C@H](CO)Cc1ccccc1 [L-Phenylalaninol]
[5]
  Relative Activity: 0.8%

## CCCCC/C=C\C/C=C\CCCCCCCC(=O)O [Linoleic Acid]
[6]; additive 2.9%
  (R)-DMA Formed: 45.1%
[6]
  Effect of additive on yield of reaction product (in words): yield of the reaction product was increased

## CCCCCCCC/C=C\CCCCCCCC(=O)O [Oleic Acid]
[6]; additive 2.9%
  (R)-DMA Formed: 44.9%
[6]
  Effect of additive on yield of reaction product (in words): yield of the reaction product was increased

## O=C(O)CC(=O)C(=O)O [Oxalacetic acid]
[1]
  Relative Activity: 87%
  Reactivity as carbonyl compound (in words): favorable reactivities

## CC(=O)COc1ccccc1 [Phenoxy-2-propanone]
[1]
  Relative Activity: 83%
  Reactivity as carbonyl compound (in words): favorable reactivities

## O=CCc1ccccc1 [Phenyl acetaldehyde]
[1]
  Relative Activity: 13%

## CC(=O)C(=O)O [Pyruvic acid]
[1]
  Relative Activity: 100%

## CCCCCCCCCCCCOS(=O)(=O)[O-].[Na+] [Sodium dodecyl sulfate]
[6]; [10]
  (R)-DMA Formed: 45.3%
[6]; additive 0.5%
  (R)-DMA Formed: 42.2%
[6]; additive 1.0%
  (R)-DMA Formed: 46.3%
[6]; additive 2.0%
  (R)-DMA Formed: 50.1%
[6]; additive 3.0%
  (R)-DMA Formed: 51.9%
[6]; additive 4.0%
  (R)-DMA Formed: 53.1%
[6]
  Effect of additive on yield of reaction product (in words): yield of the reaction product was increased

## NCCS(=O)(=O)O [Taurine]
[3]; [8]
  Relative Activity: 0%

## NCCC(N)C(=O)O (stereo not drawn) [α-2,4-Diaminobutyric acid]
[3]; [9]
  Relative Activity: 0%

## Triton X-100
[6]; [10]
  (R)-DMA Formed: 31.6%
[6]; additive 0.5%
  (R)-DMA Formed: 34.0%
